Data as given in a melting point compilation (Tetko et al.; mined from patent text by program, amines drawn as free bases though some values may be those of a salt).

Row | melting point | Structure (SMILES)
1 | 131 to 134 °C | CCCCCc1ccc(S(=O)(=O)n2c(CCC(=O)O)cc3cc(Cl)ccc32)cc1
2 | 86 to 90 °C | O=C1C[C@H](NC(=O)[C@H]2CCCN2C(=O)c2nc(CCCc3ccc(O)cc3)c[nH]2)[C@@H](OCc2ccccc2)O1
3 | 78 to 78.5 °C | CCOC(=O)C1(O)CC(C(F)(F)F)=NN1c1ncccc1Cl (stereo not drawn)
4 | 131 to 132 °C | CCOCCCN1C=Cc2cc(S(N)(=O)=O)sc2S1(=O)=O
5 | 110 to 113 °C | N#Cc1cc(OCCOCC2CC2)ccc1OCC(O)CNCCNC(=O)Nc1ccccc1 (stereo not drawn)
6 | 235 to 237 °C | CCOC(=O)c1cn2c(=O)n(CC)c3ccccc3n2c1=O
7 | 48 to 50 °C | CC(Cl)OC(=O)C=Cc1cc(N=C=O)ccc1Cl (stereo not drawn)
8 | 175 to 177 °C | COc1cc(/C=C\c2cnc(N)nc2N)cc(OC)c1OC
9 | 196 to 197 °C | CCCc1nc2c(N)nc3cccnc3c2n1CCCC(=O)N1CCOCC1
10 | 290 to 295 °C | Cn1c(=O)c2ccc(N)nc2n(C)c1=O
11 | 173 to 174 °C | CCc1cc2c(s1)S(=O)CCc1cc(=O)n(-c3ccc(Cl)cc3)nc1-2 (stereo not drawn)
12 | 72.5 to 74 °C | CCC(CC)Oc1cc(C)nc(Oc2c(C)cc(C)cc2C)c1C
13 | 165 to 166 °C | Cc1ccc(C(=O)NCC(N)=O)cc1-c1cccc2cc(Cc3cccc(C(F)(F)F)c3)sc12
14 | 66 to 68 °C | CCc1cc(Cl)n2nccc2n1
15 | 253 to 255 °C | CCc1sc(NC(=O)C2=C(O)c3ccc4ccccc4c3S(=O)(=O)N2C)nc1C
16 | 116 to 117 °C | CC1(C)OC(=O)C(c2ccc3sccc3c2)O1 (single isomer, unassigned; (-))
17 | > 320 °C | Cc1noc(C2C(=O)Nc3cc(Cl)ccc3C2=O)n1 (stereo not drawn)
18 | 167 to 168 °C | O=C1NC(=O)C(Nc2cccc(CCOCc3ccc4ccccc4n3)c2)S1 (stereo not drawn)
19 | 181 to 183 °C | COc1ccc(S(=O)(=O)N2CCC3(C=Cc4ccccc43)CC2)cc1
20 | 92 to 98 °C | Cc1onc(-c2ccccc2)c1C(=O)NCCCN1CCN(c2cc(Cl)ccc2O)CC1
21 | 157 to 159 °C | CN1CCN(C2=Cc3ccccc3Sc3cc(Cl)c(Cl)cc32)CC1
22 | 204 to 207 °C | Cc1cccc(Nc2cc(Nc3ccc(OCCCN(C)C)cc3)ncn2)c1

The remaining lines, values behind:

Row | Structure (SMILES) | melting point
23 | COC(=O)c1ccc(-c2c(CC(=O)Nc3ccc(F)cc3C(F)(F)F)c(=O)oc3cc(Cl)c(C)cc23)cc1 | 202 to 204 °C
24 | Nc1cc(CO)cc(Nc2c3ccccc3nc3occc23)c1 | 236 to 237 °C
25 | CC(F)=C1CCC2C3CC=C4CC(O[Si](C)(C)C(C)(C)C)CCC4(C)C3CCC12C (stereo not drawn) | 128 to 130 °C
26 | Cc1cc(OCc2sc(-c3ccc(C(F)(F)F)cc3)nc2C)ccc1Cc1nn[nH]n1 | 165 °C
27 | COC(=O)C1=C(C)NC(N)=C(C#N)C1c1ccc(C(F)(F)F)cc1 (stereo not drawn) | 210 to 214 °C
28 | CCc1ccc2c(c1)c(-c1ccccc1Cl)c(NC(=O)Nc1c(C)cccc1C(C)C)c(=O)n2C | 198 to 199 °C
29 | COc1ccc(C=Cc2ccc(C#N)cc2)cc1 | 146 to 148 °C
30 | O=C(Nc1ccc(Cl)cc1)NC1N=C(c2ccccc2)c2ccccc2N(CC(=O)OCc2ccccc2)C1=O (stereo not drawn) | 220 to 222 °C
31 | Cc1nc(-c2ccccc2Cl)sc1-c1ccccc1 | 63 to 65 °C
32 | Cc1cccc(N2C(=O)C(=NO)c3ccccc32)c1C | 215 to 216 °C
33 | C[Si](Cn1nc[nH]c1=S)(c1ccccc1F)c1ccccc1F | 105 °C
34 | CC1(C)[C@@H](C=C(F)F)[C@@H]1C(=O)OCc1c(F)c(F)c(F)c(-c2ccccc2)c1F (relative stereo) | 69 to 72 °C
35 | Cc1noc(-c2cccc(C3=Nc4ccc(-c5ccc(F)cc5)cc4NC(=O)C3)c2)n1 | 266 to 268 °C
36 | Cc1nc(N)nc(Cl)c1C | 212 to 220 °C
37 | O=C(O)c1cc(-c2ccc(C(F)(F)F)cc2)c2c3c(ccc2c1)OCO3 | 207 to 209 °C
38 | O=C(O)C1=CC2=CCCC=C2Sc2c1ccc1c2CCC1 | 77 °C
